Earlier results in article PMC8342319, “Predicting blood-to-plasma concentration ratios of drugs from chemical structures and volumes of distribution in humans” (Molecular Diversity, 2021).
Like-named read-outs stand apart in the source and are kept apart here.

Key:
[1] = cited from earlier work; for Rb_Human (blood-to-plasma concentration ratio) / Rb_Human: human; for Rb_Human: blood-to-plasma concentration ratio, median if multiple values reported, Reference of Table S1
plasma protein = settings: cited from earlier work; for fp_Human (free fraction in plasma): human, collected value, median if multiple values were reported, ref: Table S1
[2] = human, intravenous, cited from earlier work
[3] = human, cited from earlier work
[4] = mean if multiple values reported, ref numbers in Table S2 (supplement reference list)
[5] = median if multiple values were reported, ref numbers in Table S1
[6] = free fraction in human plasma, median if multiple values reported, Reference of Table S1
[7] = median if multiple values reported, Reference of Table S1
[8] = intravenous, median if multiple values reported, Reference of Table S1

Row | Molecule | fp_Human (plasma protein; [6]) | in vivo CL_(L/hr/kg)_Human [2, 7] [L/h/kg] | in vivo Vd_(L/kg)_Human [3, 8] [L/kg] | Rb_Human [1] | also measured
1 | CNC(=C[N+](=O)[O-])NCCSCc1csc(CN(C)C)n1 [Nizatidine, reference compound] | – | – | – | – | Rb_Human (blood-to-plasma concentration ratio) [1, 4]: 0.87
2 | O=C1c2cccc3c2[C@H](CCC3)CN1[C@@H]1CN2CCC1CC2 [Palonosetron] | – | – | – | – | fp_Human (free fraction in plasma) (plasma protein): 0.380; in vivo CL_(L/hr/kg)_Human [2, 5]: 0.156 L/h/kg; in vivo Vd_(L/kg)_Human ([3]; intravenous, median if multiple values were reported, ref numbers in Table S1): 6.300 L/kg; Rb_Human (blood-to-plasma concentration ratio) [1, 5]: 1.20
3 | c1ccc(C2(N3CCCCC3)CCCCC2)cc1 [Phencyclidine] | 0.350 | 0.306 | 6.550 | 0.94 | –
4 | CC[C@H](C)C(=O)O[C@H]1C[C@H](O)C=C2C=C[C@H](C)[C@H](CC[C@@H](O)C[C@@H](O)CC(=O)O)[C@H]21 [Pravastatin] | 0.500 | 0.840 | 0.460 | 0.59 | –
5 | COc1cc2nc(N3CCN(C(=O)c4ccco4)CC3)nc(N)c2cc1OC [Prazosin] | – | – | – | 0.70 | fp_Human (plasma protein): 0.054
6 | COc1cc(NC(C)CCCN)c2ncccc2c1 (stereo not shown) [Primaquine, reference compound] | – | – | – | – | Rb_Human (blood-to-plasma concentration ratio) [1, 4]: 0.81
7 | CC(CN1c2ccccc2Sc2ccccc21)N(C)C (stereo not shown) [Promethazine] | 0.125 | – | – | 1.50 | –
8 | CCc1nc(N)nc(N)c1-c1ccc(Cl)cc1 [Pyrimethamine] | 0.095 | 0.003 | 0.430 | 0.98 | –
9 | CCOc1cc(CC(=O)N[C@@H](CC(C)C)c2ccccc2N2CCCCC2)ccc1C(=O)O [Repaglinide] | 0.015 | 0.513 | 0.350 | 0.55 | –
10 | O=P(O)(O)C(O)(Cc1cccnc1)P(=O)(O)O [Risedronic acid] | 0.760 | 0.090 | – | 1.07 | –
11 | Cc1nc2sccn2c(=O)c1CCN1CCC(=C(c2ccc(F)cc2)c2ccc(F)cc2)CC1 [Ritanserin] | 0.009 | 0.031 | 1.410 | 0.65 | –
12 | CCCN1CCCC[C@H]1C(=O)Nc1c(C)cccc1C [Ropivacaine] | 0.065 | 0.330 | 0.750 | 0.81 | –
13 | CN(CCOc1ccc(CC2SC(=O)NC2=O)cc1)c1ccccn1 (stereo not shown) [Rosiglitazone] | 0.002 | 0.039 | – | 0.57 | –
14 | C#CCN(C)[C@H](C)Cc1ccccc1 [Selegiline] | – | 1.200 | – | 1.73 | fp_Human (plasma protein): 0.095; in vivo Vd_(L/kg)_Human ([3]; in vivo, iv): 1.900 L/kg
15 | Cc1cn([C@H]2C=C[C@@H](CO)O2)c(=O)[nH]c1=O [Stavudine] | 1.000 | 0.492 | 0.670 | 1.30 | –
16 | CNS(=O)(=O)Cc1ccc2[nH]cc(CCN(C)C)c2c1 [Sumatriptan] | 0.830 | – | 1.700 | 1.03 | –
17 | Nc1c2c(nc3ccccc13)CCCC2 [Tacrine, reference compound] | – | – | – | – | Rb_Human (blood-to-plasma concentration ratio) ([1]; plasma): 1.60
18 | COc1cc2nc(N3CCN(C(=O)C4CCCO4)CC3)nc(N)c2cc1OC (stereo not shown) [Terazosin] | 0.080 | 0.066 | – | 0.84 | –
19 | COc1cc2c(cc1O)CCN[C@]21CS[C@@H]2c3c(OC(C)=O)c(C)c4c(c3[C@H](COC1=O)N1[C@@H]2[C@H]2c3c(cc(C)c(OC)c3O)C[C@@H]([C@@H]1O)N2C)OCO4 [Trabectedin, reference compound] | – | – | – | – | Rb_Human (blood-to-plasma concentration ratio) [1, 4]: 0.89
20 | C[C@@H](O)[C@H]1C(=O)N2C(C(=O)O)=C(S[C@@H]3CN[C@H](CNS(N)(=O)=O)C3)[C@H](C)[C@H]12 [doripenem, reference compound] | – | – | – | – | fp_Human (free fraction in plasma) (plasma protein): 0.920; Rb value ([1]; almost no distribution in blood cells): 0.5
21 | Tetracycline | 0.780 | 0.090 | – | 1.70 | –
